From article PMC6352943, “Novel pyrazolo[3,4-d]pyrimidines: design, synthesis, anticancer activity, dual EGFR/ErbB2 receptor tyrosine kinases inhibitory activity, effects on cell cycle profile and caspase-3-mediated apoptosis” (Journal of Enzyme Inhibition and Medicinal Chemistry, 2019)

Assays:
Assay in all cases: NCI 60 cell line single dose screen (SRB)
Type in all cases: cell-based
A498 = settings: Homo sapiens; A498 (renal cancer), single dose 10^−5 M, 48 h; read-out: Growth inhibition percentage
Description: (§1) Anticancer activity screening of the newly synthesised compounds was measured in vitro utilising 60 different human tumour cell lines provided by US National Cancer Institute according to previously reported standard procedure[27–29] as follows: Cells are inoculated into 96-well microtitre plates in 100 ml. After cell inoculation, the microtitre plates are incubated at 37 °C, 5% CO2, 95% air and 100% relative humidity for 24 h prior to addition of experimental compounds. After 24 h, two plates of each cell line are fixed in situ with TCA, to represent a measurement of the cell population for each cell line at the time of drug addition (Tz). Experimental compounds are solubilised in dimethyl sulphoxide at 400-fold the desired final maximum test concentration and stored frozen prior to use. At the time of compound addition, an aliquot of frozen concentrate is thawed and diluted to twice the desired final maximum test concentration with complete medium containing […] gentamicin. Aliquots of […] of the compounds dilutions are added to the appropriate microtitre wells already containing 100 ml of medium, resulting in the required final compound concentration. Following compound addition, the plates are incubated for an additional 48 h at 37 °C, 5% CO2, 95% air, and 100% relative humidity. For adherent cells, the assay is terminated by the addition of cold trichloroacetic acid (TCA). Cells are fixed in situ by the gentle addition of 50 ml of cold 50% (w/v) TCA (final concentration, 10% TCA) and incubated for 60 min at 4 °C. The supernatant is discarded, and the plates are washed five times with tap water and air-dried. Sulphorhodamine B (SRB) solution (100 ml) at 0.4% (w/v) in 1% acetic acid is added to each well, and plates are incubated for 10 min at room temperature. After staining, unbound dye is removed by washing five times with 1% acetic acid and the plates are air-dried. Bound stain is subsequently solubilised with 10 mM trizma base, and the absorbance is read on an automated plate reader at a wavelength of 515 nm. For suspension cells, the methodology is the same except that the assay is terminated by fixing settled cells at the bottom of the wells by gently adding 50 ml of 80% TCA (final concentration, 16% TCA). Using the absorbance measurements [time zero, (Tz), control growth, (C), and test growth in the presence of compound (Ti)], the percentage growth is calculated for each compound. Percentage growth inhibition is calculated as: [(Ti – Tz)/(C – Tz)] x 100 for concentrations for which Ti >/=Tz. [(Ti – Tz)/Tz] x 100 for concentrations for which Ti < Tz.

A549/ATCC = settings: Homo sapiens; A549/ATCC (non-small cell lung cancer), single dose 10^−5 M, 48 h; read-out: Growth inhibition percentage
Description: as §1

ACHN = settings: Homo sapiens; ACHN (renal cancer), single dose 10^−5 M, 48 h; read-out: Growth inhibition percentage
Description: as §1

CCRF-CEM = settings: Homo sapiens; CCRF-CEM (leukemia), single dose 10^−5 M, 48 h; read-out: Growth inhibition percentage
Description: as §1

DU-145 = settings: Homo sapiens; DU-145 (prostate cancer), single dose 10^−5 M, 48 h; read-out: Growth inhibition percentage
Description: as §1

HCT-116 = settings: Homo sapiens; HCT-116 (colon cancer), single dose 10^−5 M, 48 h; read-out: Growth inhibition percentage
Description: as §1

HCT-15 = settings: Homo sapiens; HCT-15 (colon cancer), single dose 10^−5 M, 48 h; read-out: Growth inhibition percentage
Description: as §1

HL-60(TB) = settings: Homo sapiens; HL-60(TB) (leukemia), single dose 10^−5 M, 48 h; read-out: Growth inhibition percentage
Description: as §1

HT29 = settings: Homo sapiens, HT-29; HT29 (colon cancer), single dose 10^−5 M, 48 h; read-out: Growth inhibition percentage
Description: as §1

MALME-3M = settings: Homo sapiens; MALME-3M (melanoma), single dose 10^−5 M, 48 h; read-out: Growth inhibition percentage
Description: as §1

MDA-MB-231/ATCC = settings: Homo sapiens; MDA-MB-231/ATCC (breast cancer), single dose 10^−5 M, 48 h; read-out: Growth inhibition percentage
Description: as §1

MDA-MB-468 = settings: Homo sapiens; MDA-MB-468 (breast cancer), single dose 10^−5 M, 48 h; read-out: Growth inhibition percentage
Description: as §1

NCI-H460 = settings: Homo sapiens; NCI-H460 (non-small cell lung cancer), single dose 10^−5 M, 48 h; read-out: Growth inhibition percentage
Description: as §1

NCI/ADR-RES = settings: Homo sapiens; NCI/ADR-RES (ovarian cancer), single dose 10^−5 M, 48 h; read-out: Growth inhibition percentage
Description: as §1

OVCAR-3 = settings: Homo sapiens; OVCAR-3 (ovarian cancer), single dose 10^−5 M, 48 h; read-out: Growth inhibition percentage
Description: as §1

OVCAR-5 = settings: Homo sapiens; OVCAR-5 (ovarian cancer), single dose 10^−5 M, 48 h; read-out: Growth inhibition percentage
Description: as §1

OVCAR-8 = settings: Homo sapiens; OVCAR-8 (ovarian cancer), single dose 10^−5 M, 48 h; read-out: Growth inhibition percentage
Description: as §1

SF-295 = settings: Homo sapiens; SF-295 (CNS cancer), single dose 10^−5 M, 48 h; read-out: Growth inhibition percentage
Description: as §1

SK-MEL-2 = settings: Homo sapiens; SK-MEL-2 (melanoma), single dose 10^−5 M, 48 h; read-out: Growth inhibition percentage
Description: as §1

SK-MEL-5 = settings: Homo sapiens; SK-MEL-5 (melanoma), single dose 10^−5 M, 48 h; read-out: Growth inhibition percentage
Description: as §1

UACC-257 = settings: Homo sapiens; UACC-257 (melanoma), single dose 10^−5 M, 48 h; read-out: Growth inhibition percentage
Description: as §1

Structure (SMILES): Cc1nn(-c2ccc(F)cc2)c2nc[nH]c(=O)c12 [Compound 3, 1–(4-Fluorophenyl)-3-methyl-1H-pyrazolo[3,4-d]pyrimidin-4(5H)-one]
- inhibition at 10 µM (A498): 0.02%
- inhibition at 10 µM (A549/ATCC): -2.93%
- inhibition at 10 µM (ACHN): -4.68%
- inhibition at 10 µM (CCRF-CEM): -1.13%
- inhibition at 10 µM (DU-145): -6.51%
- inhibition at 10 µM (HCT-116): -1.64%
- inhibition at 10 µM (HCT-15): -6.88%
- inhibition at 10 µM (HL-60(TB)): 6.74%
- inhibition at 10 µM (HT29): 3.83%
- inhibition at 10 µM (MALME-3M): -8.22%
- inhibition at 10 µM (MDA-MB-231/ATCC): -9.78%
- inhibition at 10 µM (MDA-MB-468): -11.5%
- inhibition at 10 µM (NCI-H460): -9.62%
- inhibition at 10 µM (NCI/ADR-RES): -1.22%
- inhibition at 10 µM (OVCAR-3): -5.82%
- inhibition at 10 µM (OVCAR-5): -10.4%
- inhibition at 10 µM (OVCAR-8): -0.16%
- inhibition at 10 µM (SF-295): -4.14%
- inhibition at 10 µM (SK-MEL-2): -5.1%
- inhibition at 10 µM (SK-MEL-5): 0.31%
- inhibition at 10 µM (UACC-257): -8.15%

Structure (SMILES): Cc1nn(-c2ccc(F)cc2)c2ncnc(N)c12 [Compound 4, 1–(4-Fluorophenyl)-3-methyl-1H-pyrazolo[3,4-d]pyrimidin-4-amine]
- inhibition at 10 µM (A498): 0.68%
- inhibition at 10 µM (A549/ATCC): -4.88%
- inhibition at 10 µM (ACHN): 0.98%
- inhibition at 10 µM (CCRF-CEM): -12.7%
- inhibition at 10 µM (DU-145): -7.26%
- inhibition at 10 µM (HCT-116): -8.66%
- inhibition at 10 µM (HCT-15): -4.62%
- inhibition at 10 µM (HL-60(TB)): 7.87%
- inhibition at 10 µM (HT29): 3.34%
- inhibition at 10 µM (MALME-3M): 5.86%
- inhibition at 10 µM (MDA-MB-231/ATCC): -10.8%
- inhibition at 10 µM (MDA-MB-468): -13.2%
- inhibition at 10 µM (NCI-H460): -9.3%
- inhibition at 10 µM (NCI/ADR-RES): 0.66%
- inhibition at 10 µM (OVCAR-3): -2.81%
- inhibition at 10 µM (OVCAR-5): -4.61%
- inhibition at 10 µM (OVCAR-8): -4.64%
- inhibition at 10 µM (SF-295): -3.53%
- inhibition at 10 µM (SK-MEL-2): 1.74%
- inhibition at 10 µM (SK-MEL-5): 2%
- inhibition at 10 µM (UACC-257): -14.2%

Structure (SMILES): Cc1nn(-c2ccc(F)cc2)c2nc(N)nc(N)c12 [Compound 5, 1–(4-Fluorophenyl)-3-methyl-1H-pyrazolo[3,4-d]pyrimidine-4,6-diamine]
- inhibition at 10 µM (A498): -3.11%
- inhibition at 10 µM (A549/ATCC): -1.96%
- inhibition at 10 µM (ACHN): -3.79%
- inhibition at 10 µM (CCRF-CEM): -16.8%
- inhibition at 10 µM (DU-145): -9.51%
- inhibition at 10 µM (HCT-116): -2.75%
- inhibition at 10 µM (HCT-15): -3.69%
- inhibition at 10 µM (HL-60(TB)): 8.85%
- inhibition at 10 µM (HT29): -6.5%
- inhibition at 10 µM (MALME-3M): -7.8%
- inhibition at 10 µM (MDA-MB-231/ATCC): -9.11%
- inhibition at 10 µM (MDA-MB-468): -15.5%
- inhibition at 10 µM (NCI-H460): -18.8%
- inhibition at 10 µM (NCI/ADR-RES): -3.45%
- inhibition at 10 µM (OVCAR-3): -12.9%
- inhibition at 10 µM (OVCAR-5): -1.61%
- inhibition at 10 µM (OVCAR-8): -7.15%
- inhibition at 10 µM (SF-295): -1.89%
- inhibition at 10 µM (SK-MEL-2): 3.86%
- inhibition at 10 µM (SK-MEL-5): 0.86%
- inhibition at 10 µM (UACC-257): -18.7%
